Data reported in US11358939B2, “1,4-benzodiazepin-2-one derivatives and use thereof” (priority 2017, dated 2022).

How the values were obtained:
Format in all cases: in vivo
[1] = tested on: writhes induced by intraperitoneal acetic acid; assay: Analgesic activity, acetic acid-induced writhing test (peripheral pain model); conditions: for Writhing inhibition, % of control in 1 mg/kg dose: 1 mg/kg intraperitoneally, 40 min before 0.75% acetic acid; for ED50, analgesic activity in writhing test / ED50: intraperitoneal, Prozorovsky method; for ED50: ip
Procedure: Assessment of analgesic activity was performed in a model of peripheral pain based on chemical pain induced by intraperitoneal administration of acetic acid, leading to involuntary contractions of abdominal muscles, termed “writhes”, accompanied by hind leg extension and spine arching. The writhes were induced by 0.75% solution of acetic acid, which was administered intraperitoneally 40 min after intraperitoneal administration of test compounds in 0.001-5 mg/kg dose range. […] Analgesic activity was assessed by the ability of the compounds to reduce the number of writhes in test group compared to control group, and indicated as percentage using the following formula: AA=(Wc−Wt/Wc)×100%,
where AA—analgesic activity in %;
Wc—average number of writhes in control group;
Wt—average number of writhes in test group
Test compounds were studied in comparison with the reference drug sodium diclofenac in 10 mg/kg dose. ED50 was calculated using Prozorovsky method.

[2] = tested on: general movement activity of animals; assay: General movement activity, open field test; conditions: for General movement activity (5 mg/kg): open field 3 min, sum of rearings, transitions, explored holes, 30 min before test
Procedure: General movement activity was assessed in an open field test. While the animals were in the open field (3 min), the number of rearings (vertical movement activity), transitions between squares (horizontal movement activity) and the number of explored holes (exploratory activity) were registered. The sum of these values is general movement activity.
(§1) Diazepam drug was used as the reference drug. All test compounds and the reference drug diazepam were administered in a suspension with Tween-80 in 5 mg/kg dose 30 min before the start of experiments.

[3] = tested on: number of drinking actions despite electric shock; assay: Anxiolytic activity, conflict situation model (drinking versus electric shock); conditions: for Anxiolytic activity assessed using conflict situation method (5 mg/kg): number of drinking actions despite electric shock, 30 min before test; for Anxiolytic properties: 5 mg/kg
Procedure: Anxiolytic activity was assessed in a model of conflict situation based on the conflict of two reflexes (drinking and defensive) when drinking water from a water fountain. Anxiolytic activity was assessed by the number of drinking actions despite electric shock.
as §1

food consumption by rats = assay: Action on appetite, Anorexia method (liquid food consumption); conditions: for Amount of consumed liquid food during 30 min in ml / Food consumption, % of control: dose 0,1 mg/kg intraperitoneally; for Reduction in appetite and food consumption compared to control: Table 6 dose 0,1 mg/kg
Procedure: Studies of pharmacological activity of 3-arylamino-1,3-dihydro-2H-benzo[e][1,4]diazepin-2-ones, namely, their action of appetite, assessment of antihypoxic and antidepressant activity was performed in white male rats with body mass 150-180 g and male mice with body mass 18-22 g. The animals were kept on a standard laboratory diet and natural lighting. Animals of control group were given a water-Tween suspension. Test compounds were administered in a suspension with Tween-80 Reference drugs were the hormone leptin, in 0.0002 mg/kg dose, and a well-known antidepressant amitriptyline (solution for injections in 1 ml vials. Test compounds and the water-Tween suspension were administered in a dose of 0.2 ml/100 g of rat body mass.
The action of the compounds on rat appetite was studied using «norexia» method. For 2 weeks in an experimental equipment the rats were conditioned to consume liquid food. Then a water-Tween suspension of test articles was administered intraperitoneally to conditioned animals one day before the experiment. After 40 minutes the animals were allowed access to liquid food and the amount of consumed food (in ml) of every rat was registered every 30 minutes for 3 hours. The next day after 2 hours of deprivation the rats in control group were administered a water-Tween suspension intraperitoneally, while the test group was administered the test articles. After 40 minutes the animals were allowed access to liquid food and the amount of consumed food (in ml) of every rat was registered every 30 minutes for 3 hours. Then all food consumption values for each rat were summed and compared to control values. The control group has consumed on average 7 ml of liquid food per 30 minutes. The effect was calculated in percentage compared to control.

Compound	Writhing inhibition, % of control in 1 mg/kg dose ([1]; compounds Ib)	General movement activity (5 mg/kg) [2]	Anxiolytic activity assessed using conflict situation method (5 mg/kg) [3]	Amount of consumed liquid food during 30 min in ml (food consumption by rats)	Food consumption, % of control (food consumption by rats)	further results
CCOC1N=C(c2ccccc2)c2cc(Cl)ccc2N(CC(=O)OC)C1=O (stereo not drawn) [Compound 21]						Writhing inhibition, % of control in 1 mg/kg dose ([1]; compounds Ia): 62%; ED50, analgesic activity in writhing test [1]: 0.29 ± 0.025 mg/kg
CCCOC1N=C(c2ccccc2)c2cc(Cl)ccc2N(CC(=O)OC)C1=O (stereo not drawn) [Compound 22]						Writhing inhibition, % of control in 1 mg/kg dose ([1]; compounds Ia): 70%; ED50, analgesic activity in writhing test [1]: 0.08 ± 0.02 mg/kg
CCCCOC1N=C(c2ccccc2)c2cc(Cl)ccc2N(CC(=O)OC)C1=O (stereo not drawn) [Compound 23]						Writhing inhibition, % of control in 1 mg/kg dose ([1]; compounds Ia): 52%
COC(=O)CN1C(=O)C(Nc2ccccc2C(C)=O)N=C(c2ccccc2F)c2cc(Br)ccc21 (stereo not drawn) [Compound 89]	66%	40.0 ± 2.7	3.4 ± 1.2			Sedative properties (words, from general movement activity versus control) ([2]; 5 mg/kg): don't have sedative properties
COC(=O)CN1C(=O)C(Nc2cccc(C(C)=O)c2)N=C(c2ccccc2F)c2cc(Br)ccc21 (stereo not drawn) [Compound 90]	68%	24.5 ± 2.3	8.2 ± 3.4			
COC(=O)CN1C(=O)C(Nc2ccc(C(C)=O)cc2)N=C(c2ccccc2F)c2cc(Br)ccc21 (stereo not drawn) [Compound 91]	62%	25.2 ± 2.1	4.9 ± 2.2			
O=C1Nc2ccc(Cl)cc2C(c2ccccc2)=NC1Nc1ccccc1F (stereo not drawn) [Compound 152]				3,5 ± 1,3 ml	47%	
O=C1Nc2ccc(Cl)cc2C(c2ccccc2)=NC1Nc1ccccc1Br (stereo not drawn) [Compound 161]				5,5 ± 2,4 ml	74%	
O=C1Nc2ccc(Cl)cc2C(c2ccccc2)=NC1Nc1cccc(Br)c1 (stereo not drawn) [Compound 162]				5,1 ± 2,2 ml	69%	
O=C1Nc2ccc(Cl)cc2C(c2ccccc2)=NC1Nc1ccc(Br)cc1 (stereo not drawn) [Compound 163]				6,8 ± 2,7 ml	92%	
COC(=O)CN1C(=O)C(Nc2ccccc2[N+](=O)[O-])N=C(c2ccccc2)c2cc(Cl)ccc21 (stereo not drawn) [Compound 173]	55%	15.0 ± 1.3	120.5 ± 10.3			Anxiolytic properties [3]: potent anxiolytic properties
COC(=O)CN1C(=O)C(Nc2cccc([N+](=O)[O-])c2)N=C(c2ccccc2)c2cc(Cl)ccc21 (stereo not drawn) [Compound 174]	58%	18.0 ± 2.4	60.6 ± 7.0			
COC(=O)CN1C(=O)C(Nc2ccc([N+](=O)[O-])cc2)N=C(c2ccccc2)c2cc(Cl)ccc21 (stereo not drawn) [Compound 175]	55%	20.0 ± 1.0	48.7 ± 3.6			
O=C1Nc2ccc(OC(F)(F)F)cc2C(c2ccccc2)=NC1Nc1cccc(Cl)c1 (stereo not drawn) [Compound 195]				5,7 ± 2,2 ml	77%	
O=C1Nc2ccc(OC(F)(F)F)cc2C(c2ccccc2)=NC1Nc1ccc(Cl)cc1 (stereo not drawn) [Compound 196]				6,5 ± 3,2 ml	88%	
COC(=O)CN1C(=O)C(Nc2ccccc2[N+](=O)[O-])N=C(c2ccccc2)c2cc(OC(F)(F)F)ccc21 (stereo not drawn) [Compound 227]	60%	13.0 ± 1.3	109.5 ± 8.3			Anxiolytic properties [3]: potent anxiolytic properties
COC(=O)CN1C(=O)C(Nc2cccc([N+](=O)[O-])c2)N=C(c2ccccc2)c2cc(OC(F)(F)F)ccc21 (stereo not drawn) [Compound 228]	62%	17.0 ± 2.4	40.6 ± 3.9			

Compound	Writhing inhibition, % of control in 1 mg/kg dose ([1]; compounds Ib)	General movement activity (5 mg/kg) [2]	Anxiolytic activity assessed using conflict situation method (5 mg/kg) [3]	Amount of consumed liquid food during 30 min in ml (food consumption by rats)	Food consumption, % of control (food consumption by rats)	further results
COC(=O)CN1C(=O)C(Nc2ccc([N+](=O)[O-])cc2)N=C(c2ccccc2)c2cc(OC(F)(F)F)ccc21 (stereo not drawn) [Compound 229]	59%	19.0 ± 1.0	38.7 ± 2.6			
O=C1Nc2ccc([N+](=O)[O-])cc2C(c2ccccc2)=NC1Nc1ccccc1Cl (stereo not drawn) [Compound 248]				3,1 ± 2,4 ml	41%	Reduction in appetite and food consumption compared to control (food consumption by rats): 41%
O=C1Nc2ccc([N+](=O)[O-])cc2C(c2ccccc2)=NC1Nc1cccc(Cl)c1 (stereo not drawn) [Compound 249]				5,1 ± 2,2 ml	69%	
COC(=O)CN1C(=O)C(Nc2ccccc2[N+](=O)[O-])N=C(c2ccccc2)c2cc([N+](=O)[O-])ccc21 (stereo not drawn) [Compound 281]	61%	14.0 ± 1.4	115.6 ± 9.3			Anxiolytic properties [3]: potent anxiolytic properties
COC(=O)CN1C(=O)C(Nc2cccc([N+](=O)[O-])c2)N=C(c2ccccc2)c2cc([N+](=O)[O-])ccc21 (stereo not drawn) [Compound 282]	59%	19.0 ± 2.4	44.7 ± 3.9			
COC(=O)CN1C(=O)C(Nc2ccc([N+](=O)[O-])cc2)N=C(c2ccccc2)c2cc([N+](=O)[O-])ccc21 (stereo not drawn) [Compound 283]	54%	22.0 ± 2.0	45.1 ± 2.6			
O=C1Nc2ccc([N+](=O)[O-])cc2C(c2ccccc2Cl)=NC1Nc1ccccc1Br (stereo not drawn) [Compound 320]				6,5 ± 3,4 ml	88%	
O=C1Nc2ccc([N+](=O)[O-])cc2C(c2ccccc2Cl)=NC1Nc1cccc(Br)c1 (stereo not drawn) [Compound 321]				6,1 ± 3,2 ml	82%	
O=C1Nc2ccc([N+](=O)[O-])cc2C(c2ccccc2Cl)=NC1Nc1ccc(Br)cc1 (stereo not drawn) [Compound 322]				7,8 ± 2,7 ml	105%	
CC(=O)c1ccccc1NC1N=C(c2ccccc2F)c2cc([N+](=O)[O-])ccc2NC1=O (stereo not drawn) [Compound 347]				6,5 ± 2,7 ml	105%	
CC(=O)c1cccc(NC2N=C(c3ccccc3F)c3cc([N+](=O)[O-])ccc3NC2=O)c1 (stereo not drawn) [Compound 348]				21,4 ± 4,9 ml	284%	
CC(=O)c1ccc(NC2N=C(c3ccccc3F)c3cc([N+](=O)[O-])ccc3NC2=O)cc1 (stereo not drawn) [Compound 349]				14 ± 1,8 ml	189%	
O=C1Nc2ccc([N+](=O)[O-])cc2C(c2ccccc2F)=NC1Nc1ccccc1Cl (stereo not drawn) [Compound 356]				2,9 ± 2,1 ml	39%	Reduction in appetite and food consumption compared to control (food consumption by rats): 39%
O=C1Nc2ccc([N+](=O)[O-])cc2C(c2ccccc2F)=NC1Nc1ccc(Cl)cc1 (stereo not drawn) [Compound 358]				6,7 ± 3,2 ml	90%	Effect on appetite (food consumption by rats): hyperphagic effect
CN1C(=O)CN=C(c2ccccc2)c2cc(Cl)ccc21 [Diazepam, reference compound]		32.5 ± 2.8	120.0 ± 4.9			
COc1ccc2c(c1)c(CC(=O)O)c(C)n2C(=O)c1ccc(Cl)cc1 [indomethacin, reference compound]						ED50 [1]: 1.5 ± 0.26 mg/kg
O=C(O)Cc1ccccc1Nc1c(Cl)cccc1Cl [sodium diclofenac, reference compound]						ED50 [1]: 10 ± 1.8 mg/kg
